Reference: ChEMBL document CHEMBL4422609, “Overview of the Development of Glutaminase Inhibitors: Achievements and Future Directions” (J Med Chem, 2019)

Key:
[1] = Inhibition of KGA (unknown origin) using glutamine as substrate preincubated for 20 mins followed by substrate addition and measured after 2 hrs; design: species or system Homo sapiens
[2] = Inhibition of KGA (unknown origin); design: species or system Homo sapiens
[3] = tested on: NCI-H1650; test: Antitumor activity against human NCI-H1650 cells harboring EGFR mutant xenografted in mouse assessed as tumor growth inhibition relative to control; format: functional
[4] = Inhibition of GAC (unknown origin); design: species or system Homo sapiens
[5] = tested on: JIMT-1; test: Antitumor activity against human JIMT1 cells xenografted in mouse assessed as tumor growth inhibition at 10 mg/kg, po administered every other day for 5 doses relative to control; format: functional; conditions: JIMT-1, po, read-out: TGI
[6] = tested on: RPMI-8226; test: Antitumor activity against human RPMI8226 cells xenografted in mouse assessed as tumor growth inhibition at 200 mg/kg, po administered BID co-treated with pomalidomide relative to control; format: functional; conditions: RPMI-8226, po, read-out: TGI
[7] = tested on: RPMI-8226; test: Antitumor activity against human RPMI8226 cells xenografted in mouse assessed as tumor growth inhibition at 200 mg/kg, po administered BID relative to control; format: functional; conditions: RPMI-8226, po, read-out: TGI
[8] = tested on: JIMT-1; test: Antitumor activity against human JIMT1 cells xenografted in mouse assessed as tumor growth inhibition at 200 mg/kg, po administered BID relative to control; format: functional; conditions: JIMT-1, po, read-out: TGI
[9] = Antitumor activity against human CTG-0052 cells xenografted in mouse assessed as tumor growth inhibition at 200 mg/kg, po administered BID relative to control; format: functional; conditions: read-out: TGI
[10] = tested on: NCI-H1650; test: Antitumor activity against human NCI-H1650 cells harboring EGFR mutant xenografted in mouse assessed as tumor growth inhibition co-treated with erlotinib relative to control; format: functional
[11] = Antiproliferative activity against human MDA-MB-231met2 cells; format: functional, cell-based
[12] = tested on: NCI-H2122; test: Antitumor activity against human NCI-H2122 cells harboring KRAS mutant xenografted in mouse assessed as tumor growth inhibition co-treated with selumetinib relative to control; format: functional
[13] = tested on: JIMT-1; test: Antitumor activity against human JIMT1 cells xenografted in mouse assessed as tumor growth inhibition at 200 mg/kg, po administered BID co-treated with paclitaxel relative to control; format: functional; conditions: JIMT-1, po, read-out: TGI
[14] = tested on: NCI-H2122; test: Antitumor activity against human NCI-H2122 cells harboring KRAS mutant xenografted in mouse assessed as tumor growth inhibition relative to control; format: functional
[15] = tested on: RPMI-8226; test: Antitumor activity against human RPMI8226 cells xenografted in mouse assessed as tumor growth inhibition at 1 mg/kg, po administered QD relative to control; format: functional; conditions: RPMI-8226, po, read-out: TGI
[16] = Inhibition of GAC (unknown origin) by fluorescence labeling-based assay; design: species or system Homo sapiens

SMILES: O=C(Cc1ccccc1)Nc1nnc(CCSCCc2nnc(NC(=O)Cc3ccccc3)s2)s1
- IC50 [1]: 160 nM
- IC50 [2]: 3000 nM

SMILES: C#Cc1cccc(Nc2ncnc3cc(OCCOC)c(OCCOC)cc23)c1 [ERLOTINIB]
- TGI [3]: 66%

SMILES: CN(C)c1ccc(C2Nc3ccc4ccccc4c3C3=C2C(=O)CC(C)(C)C3)cc1Br (centres undefined)
- IC50 [4]: 9300 nM

SMILES: CC(=O)O[C@H]1C(=O)[C@@]2(C)[C@H]([C@H](OC(=O)c3ccccc3)[C@]3(O)C[C@H](OC(=O)[C@H](O)[C@@H](NC(=O)c4ccccc4)c4ccccc4)C(C)=C1C3(C)C)[C@]1(OC(C)=O)CO[C@@H]1C[C@@H]2O [PACLITAXEL]
- inhibition in vivo at 10 mg/kg [5]: 73%

SMILES: CN(C)c1ccc(C2Nc3ccc4ccccc4c3C3=C2C(=O)CC(C)(C)C3)cc1 (centres undefined)
- IC50 [4]: 50000 nM

SMILES: O=C(Cc1ccccc1)Nc1nnc([C@@H]2CCC[C@@H](c3nnc(NC(=O)Cc4ccccc4)s3)C2)s1 (racemic)
- IC50 [1]: 100 nM

SMILES: O=C(Cc1cccc(OC(F)(F)F)c1)Nc1ccc(CCCCc2nnc(NC(=O)Cc3ccccn3)s2)nn1
- inhibition in vivo at 200 mg/kg [6]: 97%
- inhibition in vivo at 200 mg/kg [7]: 64%
- inhibition in vivo at 200 mg/kg [8]: 54%
- inhibition in vivo at 200 mg/kg [9]: 61%
- TGI [10]: 89%
- TGI [3]: 26%
- IC50 [11]: 2 to 300 nM
- TGI [12]: 78%
- inhibition in vivo at 200 mg/kg [13]: 100%
- IC50 [4]: 20 nM
- TGI [14]: 46%

SMILES: Nc1cccc2c1C(=O)N(C1CCC(=O)NC1=O)C2=O (centres undefined) [POMALIDOMIDE]
- inhibition in vivo at 1 mg/kg [15]: 46%

SMILES: CC(C)c1ccc(C2Nc3ccc4ccccc4c3C3=C2C(=O)CC(C)(C)C3)cc1 (centres undefined)
- IC50 [4]: 20000 nM

SMILES: CN(C)c1ccc(C2Nc3ccc4cc5ccccc5cc4c3C3=C2C(=O)CC(C)(C)C3)cc1Br (centres undefined)
- IC50 [16]: 1500 nM

SMILES: CC1(C)CC(=O)C2=C(C1)c1c(ccc3ccccc13)NC2c1ccc(C(C)(C)C)cc1 (centres undefined)
- IC50 [16]: 10000 nM

SMILES: CN(C)c1ccc(C2Nc3ccc(C(C)(C)C)cc3C3=C2C(=O)CC(C)(C)C3)cc1Br (centres undefined)
- IC50 [16]: 4500 nM

SMILES: Cn1cnc2c(F)c(Nc3ccc(Br)cc3Cl)c(C(=O)NOCCO)cc21 [SELUMETINIB]
- TGI [14]: 49%
